{"source": "patent US20060252107A1", "about": "“Compositions and methods for diagnosing and treating retinal diseases” (Acucela, Inc., priority 2005, published 2006)", "key": {"photoreceptor cells": {"system": "photoreceptor cells", "test": "mature retinal cell culture system with A2E as cell stressor, photoreceptor survival", "format": "cell-based, Porcine", "method": "(§1) The retinal cell culture system may be exposed to A2E at any concentration between 1 pM and 200 μM (e.g., 1 pM, 10 pM, 100 pM, 250 pM, 500 pM, 750 pM, 1 nM, 10 nM, 50 nM, 100 nM, 250 nM, 500 nM, 750 nM, 1 μM, 2 μM, 5 μM, 7.5 μM, 10 μM, 15 μM, 20 μM, 25 μM, 40 μM, 50 μM, 75 μM, 100 μM, 120 μM, 200 μM); or 250 μM, 500 μM, or 750 μM), between 1 μM and 40 μM, or between 10 μM and 20 μM, for a period of time, for example, between 2 and 48 hours or between 12 and 36 hours. In another embodiment, the cell culture may be exposed to lower concentrations of A2E (for example, between 1 pM and 10 μM or between 1 nM and 1 μM) for longer times (such as about one week, about two weeks, or about one month (4 weeks)).\n(§2) Porcine eyes are obtained from Kapowsin Meats, Inc. (Graham, Wash.). Eyes are enucleated, and muscle and tissue are cleaned away from the orbit. Eyes are cut in half along their equator and the neural retina is dissected from the […] part of the eye in buffered saline solution, according to standard methods known in the art. […]\n(§3) The retinal neuronal cells are cultured for 1, 3, 6, and 8 weeks, and the cells are analyzed by immunohistochemistry at each time point. […]\n(§4) Cultures are analyzed by counting rhodopsin-labeled photoreceptors and NFM-labeled ganglion cells using an Olympus 1X81 or CZX41 microscope (Olympus, Tokyo, Japan). […]"}, "ganglion cells": {"system": "ganglion cells", "test": "mature retinal cell culture system with A2E as cell stressor, ganglion cell survival", "format": "cell-based, Porcine", "details": "20 μM A2E for 48 hours", "method": "as §1, §2, §3, §4"}}}
{"smiles": "CC(C=CC1=C(C)CCCC1(C)C)=CC=CC(C)=Cc1cc(C=CC=C(C)C=CC2=C(C)CCCC2(C)C)cc[n+]1CCO", "note": "[A2E, N-retinylidene-N-retinyl-ethanolamine]", "values": [{"measurement": "death of photoreceptor cells", "setting": "photoreceptor cells; 20 μM A2E for 48 hours, compared to photoreceptor cells not exposed to A2E", "value": "more than 90%"}, {"measurement": "effect of exposure of the retinal neuronal cell culture system to A2E", "setting": "photoreceptor cells; concentration and time not stated", "value": "selective killing of certain cells, particularly photoreceptor cells"}, {"measurement": "survival of ganglion cells", "setting": "ganglion cells", "value": "not adversely affected"}]}
